Test results taken from patent publication US20230416199A1, “INHIBITORS OF AMINO ACID TRANSPORT” (ICAHN SCHOOL OF MEDICINE AT MOUNT SINAI, priority 2020, published 2023).
Like-named read-outs stand apart in the source and are kept apart here.

What was measured:
Assay type in all cases: cell-based
hASCT1 = molecular target: T1, hASCT1 (Homo sapiens, UniProt P43007); experiment: Electrophysiology (whole-cell current recording) of transfected HEK293 cells, hASCT1
T1 construct: expressed in transfected cells; host or cells: HEK293 (ATCC CRL-11268), transient transfection
T1 sequence (P43007 1-532): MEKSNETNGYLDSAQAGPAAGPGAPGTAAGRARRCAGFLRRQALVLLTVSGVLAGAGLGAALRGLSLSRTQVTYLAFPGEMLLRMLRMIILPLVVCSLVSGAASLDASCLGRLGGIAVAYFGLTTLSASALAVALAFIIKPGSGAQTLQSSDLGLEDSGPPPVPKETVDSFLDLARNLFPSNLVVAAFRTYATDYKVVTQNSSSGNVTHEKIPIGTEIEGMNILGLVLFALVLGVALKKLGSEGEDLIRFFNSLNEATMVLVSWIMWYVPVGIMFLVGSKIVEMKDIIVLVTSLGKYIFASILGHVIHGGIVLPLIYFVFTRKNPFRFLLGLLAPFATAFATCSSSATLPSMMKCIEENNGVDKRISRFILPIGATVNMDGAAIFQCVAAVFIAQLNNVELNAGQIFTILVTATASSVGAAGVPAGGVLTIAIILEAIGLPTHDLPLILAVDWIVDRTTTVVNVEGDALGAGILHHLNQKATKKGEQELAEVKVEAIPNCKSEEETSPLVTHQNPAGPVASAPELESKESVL
Description: (§1) Human embryonic kidney 293 (HEK293, ATCC CRL-11268) cells were cultured in DMEM media supplemented with 10% (v v) fetal bovine serum (FBS), 2 mM glutamine, 1% penicillin streptomycin solution, 1 mM sodium pyruvate and non-essential amino acids. Cells were maintained at 37° C. in a fully humidified atmosphere containing 5% CO2. rASCT2, hASCT2, hASCT1, EAAT1, EAAT2, EAAC1, EAAT5 and YFP complementary DNAs were each used to transiently transfect HEK293 using POLYPLUS Jet-prime transfection reagent. Cells were analyzed using electrophysiological techniques 24-40 hours after transfection.
(§2) Stock solutions of inhibitor was prepared in dimethyl sulfoxide (DMSO) up to 100 mM. Dilutions to working concentrations were made using external buffer. […] For rASCT2, hASCT2 and hASCT1, external buffer contained 140 mM NaCl, 2 mM MgCl2, 2 mM CaCl2), and 10 mM HEPES, pH 7.40 while internal pipette solution comprised of 130 mM NaSCN, 2 mM MgCl2, 10 mM EGTA, 10 mM HEPES and 10 mM alanine, pH 7.40. For specificity experiments with EAAT1, EAAT2, EAAC1 and EAAT5, internal solution contained 10 mM glutamate instead of alanine. Compounds were applied to HEK293 cells expressing DNA of interest suspended from a current recording electrode in whole cell configuration through a rapid solution exchange device. Cells are immersed in external buffer bath used to dissolve the inhibitors. The open pipette resistance was between 3 and 6 MΩ. Series resistance was not compensated in these experiments due to relatively small currents. Currents traces were recorded using an Adams and List EPC7 amplifier and digitized using a Molecular Devices Digidata A/D converter.
(§3) Linear and nonlinear curve fitting of the experimental data were analyzed using MicroCal Origin software. Nonlinear dose-response relationships were fitted with a Michaelis-Menten-like equation to obtain apparent Ki values in the absence of substrate (see TABLE 2 for Ki values). The figures show representative current traces and dose-response curves for hACST2 and rASCT2, used to obtain Ki values in TABLE 2 for compound SN 40. At least four experiments were performed with at least three different cells. Error bars in all graphs, e.g., in FIG. 1B and FIG. 1C and tables (Ki values) represent mean±SD.

rASCT2 = molecular target: T2, rASCT2 (Rattus norvegicus, UniProt D3ZJ25); experiment: Electrophysiology (whole-cell current recording) of transfected HEK293 cells, rASCT2
T2 construct: expressed in transfected cells; host or cells: HEK293 (ATCC CRL-11268), transient transfection
T2 sequence (D3ZJ25 1-555): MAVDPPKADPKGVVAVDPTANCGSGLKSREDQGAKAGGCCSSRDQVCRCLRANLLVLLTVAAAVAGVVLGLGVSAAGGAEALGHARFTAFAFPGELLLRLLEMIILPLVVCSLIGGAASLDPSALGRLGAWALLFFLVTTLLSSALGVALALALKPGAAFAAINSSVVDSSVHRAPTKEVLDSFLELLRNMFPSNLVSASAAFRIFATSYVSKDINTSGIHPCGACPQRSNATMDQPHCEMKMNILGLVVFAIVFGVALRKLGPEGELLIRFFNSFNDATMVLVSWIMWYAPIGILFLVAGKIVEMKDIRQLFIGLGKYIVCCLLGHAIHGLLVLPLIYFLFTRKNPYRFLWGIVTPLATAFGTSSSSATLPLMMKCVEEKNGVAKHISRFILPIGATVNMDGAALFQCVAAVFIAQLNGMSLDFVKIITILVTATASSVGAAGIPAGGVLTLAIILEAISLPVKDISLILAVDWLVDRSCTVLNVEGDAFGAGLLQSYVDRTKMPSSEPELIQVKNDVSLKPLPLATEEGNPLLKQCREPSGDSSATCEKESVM
Description: as §1, §2, §3

hASCT2 = molecular target: T3, hASCT2 (Homo sapiens, UniProt Q15758); experiment: Electrophysiology (whole-cell current recording) of transfected HEK293 cells, hASCT2
T3 construct: expressed in transfected cells; host or cells: HEK293 (ATCC CRL-11268), transient transfection
T3 sequence (Q15758 1-541): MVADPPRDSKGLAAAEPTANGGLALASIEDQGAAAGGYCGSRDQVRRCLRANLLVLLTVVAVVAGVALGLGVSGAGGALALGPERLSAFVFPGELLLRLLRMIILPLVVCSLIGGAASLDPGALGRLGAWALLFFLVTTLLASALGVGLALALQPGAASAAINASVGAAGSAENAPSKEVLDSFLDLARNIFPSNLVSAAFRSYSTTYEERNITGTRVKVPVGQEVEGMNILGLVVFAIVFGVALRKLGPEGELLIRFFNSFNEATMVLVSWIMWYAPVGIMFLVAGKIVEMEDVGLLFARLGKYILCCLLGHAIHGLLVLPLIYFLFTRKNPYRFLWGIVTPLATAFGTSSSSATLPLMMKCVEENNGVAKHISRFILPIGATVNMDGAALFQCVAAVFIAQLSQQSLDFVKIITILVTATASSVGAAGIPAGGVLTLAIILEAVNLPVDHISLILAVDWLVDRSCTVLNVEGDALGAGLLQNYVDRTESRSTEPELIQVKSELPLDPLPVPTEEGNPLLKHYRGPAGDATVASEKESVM
Description: as §1, §2, §3

EAAT1 = molecular target: T4, EAAT1 (Homo sapiens, UniProt P43003); experiment: Electrophysiology specificity experiment in transfected HEK293 cells, EAAT1; details: apparent Ki, HEK293, internal solution 10 mM glutamate, mean ± SD
T4 construct: expressed in transfected cells; host or cells: HEK293 (ATCC CRL-11268), transient transfection
Description: as §1, §2, §3

[1] = Table 3, dihydroxyproline derivatives, read-out: Ki All DNA: hASCT1
[2] = Table 3, dihydroxyproline derivatives, read-out: Ki All DNA: rASCT2
[3] = Table 3, dihydroxyproline derivatives, read-out: Ki All DNA: hASCT2
[4] = apparent Ki in the absence of substrate, HEK293, mean ± SD, read-out: Ki hASCT1
[5] = apparent Ki in the absence of substrate, HEK293, mean ± SD, read-out: Ki rASCT2
[6] = apparent Ki in the absence of substrate, HEK293, mean ± SD, read-out: Ki hASCT2

T4 sequence (P43003 whole entry, species assumed): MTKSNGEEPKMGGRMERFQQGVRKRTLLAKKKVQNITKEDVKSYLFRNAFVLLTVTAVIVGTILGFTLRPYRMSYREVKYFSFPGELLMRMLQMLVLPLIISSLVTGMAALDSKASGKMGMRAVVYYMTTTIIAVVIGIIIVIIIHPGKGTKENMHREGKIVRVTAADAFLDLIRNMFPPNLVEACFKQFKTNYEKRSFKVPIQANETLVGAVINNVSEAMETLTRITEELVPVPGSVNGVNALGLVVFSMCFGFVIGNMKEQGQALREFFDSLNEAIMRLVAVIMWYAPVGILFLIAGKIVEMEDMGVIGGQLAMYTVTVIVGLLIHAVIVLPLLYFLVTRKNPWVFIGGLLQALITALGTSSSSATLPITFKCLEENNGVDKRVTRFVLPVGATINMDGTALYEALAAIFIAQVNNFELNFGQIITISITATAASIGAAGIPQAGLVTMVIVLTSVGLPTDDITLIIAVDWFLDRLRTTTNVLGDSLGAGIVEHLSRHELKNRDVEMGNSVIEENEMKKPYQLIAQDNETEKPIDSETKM

SMILES | Ki (hASCT1; [4]) [µM] | Ki (rASCT2; [5]) [nM] | Ki (hASCT2; [6]) [nM] | further results
O=C(OC[C@@]1(O)CN[C@H](C(=O)O)C1)c1ccc(C(O)c2ccccc2)cc1 (some centres unmarked) [SN63] |  |  |  | Ki (hASCT1; [1]): 93 µM; Ki (rASCT2; [2]): 232000 nM; Ki (hASCT2; [3]): 405000 nM
O=C(O[C@@H]1CN[C@H](C(=O)O)C1)c1ccc(C(O)c2ccccc2)cc1 (some centres unmarked) [SN 13] | 43 ± 13.4 | 18800 ± 5000 | 5650 ± 1300 | Ki (EAAT1): 39.5 ± 19 µM
O=C(O[C@]1(CO)CN[C@H](C(=O)O)C1)c1ccc(Oc2ccccc2)cc1 [SN76] |  |  |  | Ki (hASCT1; [1]): 12.2 µM; Ki (rASCT2; [2]): 20000 nM; Ki (hASCT2; [3]): 31900 nM
O=C(O)[C@@H]1C[C@H](NCc2ccc(-c3ccc(C(F)(F)F)cc3)cc2)CN1 [SN 41] |  |  | 1150 ± 900 | 
O=C(Nc1ccc(C(=O)O[C@@H]2CN[C@H](C(=O)O)C2)cc1)c1ccccc1 [SN 14] |  | 4580 ± 1100 |  | 
N[C@H](C(=O)O)[C@@H](CO)OC(=O)c1ccc(-c2ccccc2)cc1 [SN 37] |  | 7460 ± 900 | 2710 ± 500 | 
O=C(O[C@@H]1CN[C@H](C(=O)O)C1)c1ccc(-c2ccccn2)cc1 [SN 18] | 7.01 ± 2.1 | 2790 ± 700 | 3010 ± 500 | Ki (EAAT1): 12.4 ± 1 µM
O=C(O[C@@H]1CN[C@H](C(=O)O)C1)c1ccc(OCc2ccccc2)cc1 [SN 21] | > 100 | 8170 ± 1100 |  | 
O=C(O[C@]1(CO)CN[C@H](C(=O)O)C1)c1ccc(-c2ccc(F)cc2)cc1 [SN74] |  |  |  | Ki (hASCT1; [1]): 2.45 µM; Ki (rASCT2; [2]): 2160 nM; Ki (hASCT2; [3]): 3200 nM
O=C(Nc1cccc(C(=O)O[C@@H]2CN[C@H](C(=O)O)C2)c1)c1ccc(C(F)(F)F)cc1 [SN 17] | 9.97 ± 0.5 |  |  | Ki (rASCT2; apparent Ki in the absence of substrate, HEK293, nM, read-out: Ki rASCT2): < 100 nM; Ki (hASCT2; apparent Ki in the absence of substrate, HEK293, nM, read-out: Ki hASCT2): < 100 nM
N[C@H](C(=O)O)[C@H](O)COC(=O)c1ccc(-c2ccccc2)cc1 [SN 35] |  | 4830 ± 1000 | 840 ± 200 | 
N[C@@H](COC(=O)c1ccc(C(=O)c2ccccc2)cc1)C(=O)O [SN 26] |  | 22000 ± 4500 |  | 
O=C(Nc1cccc(CN[C@@H]2CN[C@H](C(=O)O)C2)c1)c1ccccc1 [SN 42] | 172 ± 24 | 74700 ± 18300 | 103000 ± 11200 | 
O=C(Nc1ccc(C(=O)O[C@@H]2CN[C@H](C(=O)O)C2)cc1)c1ccc(C(F)(F)F)cc1 [SN 15] | 8.51 ± 3.9 | 3370 ± 400 | 2940 ± 900 | Ki (EAAT1): 1.29 ± 0.2 µM
O=C(Nc1cccc(C(=O)N[C@@H]2CN[C@H](C(=O)O)C2)c1)c1ccccc1 [SN 47] | 141 ± 17.6 | 151000 ± 13300 | 227000 ± 34200 | 
O=C(N[C@@H]1CN[C@H](C(=O)O)C1)c1ccc(-c2ccccc2)cc1 [SN 45] |  | 1680 ± 600 | 4690 ± 1100 | 
O=C(O[C@@H]1CN[C@H](C(=O)O)C1)c1cccc(-c2ccccc2)c1 [SN 06] |  | 5630 ± 1000 | 5560 ± 4700 | 
N[C@@H](COCc1ccc(-c2ccccc2)cc1)C(=O)O [SN 38] |  | 380 ± 170 |  | 
O=C(Nc1ccc(C(=O)N[C@@H]2CN[C@H](C(=O)O)C2)cc1)c1ccccc1 [SN 48] | 7.9 ± 0.5 | 12400 ± 1800 | 17300 ± 2100 | 
N[C@@H](CCOC(=O)c1ccc(-c2ccccc2)cc1)C(=O)O [SN 33] |  | 3510 ± 600 | 3500 ± 600 | 
O=C(Nc1ccc(CN[C@@H]2CN[C@H](C(=O)O)C2)cc1)c1ccccc1 [SN 43] | 20 ± 2.3 | 27200 ± 1900 | 33600 ± 2500 | 
N[C@@H](COC(=O)c1ccc(C(O)c2ccccc2)cc1)C(=O)O (some centres unmarked) [SN 27] |  | 5170 ± 1200 |  | 
N[C@H](C(=O)O)[C@@H](O)COC(=O)c1ccc(-c2ccccc2)cc1 [SN 34] |  | 3630 ± 1100 | 10000 ± 2800 | 
N[C@H](C(=O)O)[C@H](CO)OC(=O)c1ccc(-c2ccccc2)cc1 [SN 36] |  | 6020 ± 1800 | 6380 ± 1200 | 
N[C@@H](COC(=O)c1ccc(-c2cccc(F)c2)cc1F)C(=O)O [SN 24] |  | 19700 ± 3100 |  | 
O=C(O[C@]1(CO)CN[C@H](C(=O)O)C1)c1ccc(-c2ccc(C(F)(F)F)cc2)cc1 [SN75] |  |  |  | Ki (hASCT1; [1]): 1.17 µM; Ki (rASCT2; [2]): 3310 nM; Ki (hASCT2; [3]): 8070 nM
O=C(OC[C@@]1(O)CN[C@H](C(=O)O)C1)c1ccc(-c2cccc(F)c2)cc1F [SN60] |  |  |  | Ki (hASCT1; [1]): 8.15 µM; Ki (rASCT2; [2]): 4870 nM; Ki (hASCT2; [3]): 4610 nM
O=C(OC[C@@]1(O)CN[C@H](C(=O)O)C1)c1ccc(C(=O)c2ccccc2)cc1 [SN61] |  |  |  | Ki (hASCT1; [1]): 18.6 µM; Ki (rASCT2; [2]): 88600 nM; Ki (hASCT2; [3]): 108000 nM
O=C(O[C@@H]1CN[C@H](C(=O)O)C1)c1c2ccccc2cc2ccccc12 [SN 22] |  | 10000 ± 5100 |  | 
O=C(O[C@@H]1CN[C@H](C(=O)O)C1)c1ccc(Oc2ccccc2)cc1 [SN 20] | 5.71 ± 0.9 | 3680 ± 700 | 4170 ± 500 | 
